Among the data in the METLIN SMRT retention time set (Domingo-Almenara et al. 2019) are RP-LC retention time values, retold here.

This data set in a line: gradient 5% acetonitrile 3 min, to 50% in 2 min, to 85% in 15 min, held 3 min, 100 µL/min. Particulars: column: Zorbax Extend-C18 2.1 x 50 mm; eluents: water / acetonitrile, 0.1% formic acid. A digest of the protocol: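 Data were gathered over 3 months by HPLC coupled to a quadrupole time-of-flight mass spectrometer, operated in positive and negative ionization mode. Mixtures of ~100 pure standards ran on a Zorbax Extend-C18 column (2.1 × 50 mm, 1.8 μm) at 100 μL/min, with water and acetonitrile each containing 0.1% formic acid and dead and dwell volumes of 40 μL and 900 μL. Retention time was read from adduct peaks picked by computer and checked manually.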
`Cc1cccc(Oc2coc3cc(OC(=O)c4ccncc4)ccc3c2=O)c1` yielded an RP-LC retention time of 984 s.

`Cc1ccc(Nc2c(-c3ccc(Cl)cc3)nc3cccc(C)n23)cc1` returned an RP-LC retention time of 810 s.

With `O=C(CCc1c[nH]c2ccccc12)N1[C@H]2CC[C@@H]1c1cnc(-c3ccccc3)nc1C2`, the RP-LC retention time worked out at 884 s.

The molecule `CN1CCC(NC(=O)c2n[nH]c3c2CN(C(=O)c2ccc(F)cc2F)CC3)CC1` registered an RP-LC retention time of 578 s. The result for `Cc1ccc(C)c(NC(=O)N2CCC(n3cnc4ccc(Cl)cc4c3=O)CC2)c1` reads 929 s; that for `CCNC(=O)c1ccc(-n2nc(C)c(C)c2C)nc1`, 758 s; that for `CCSc1ccccc1C(=O)N1CCN(CCn2cccn2)CC1`, 568 s. The result for `COc1cc(NC(=O)C2CN(S(=O)(=O)C3CC3)CC23CCCCC3)cc(OC)c1` (stereo not drawn) reads 955 s; that for `O=C(NCc1ccccc1C(F)(F)F)c1cn2c(n1)CCCC2`, 640 s; that for `Cc1oc2c(c1C(=O)NCC1CCN(Cc3ccc(Cl)cc3)CC1)C1=NCCN1C=N2`, 567 s. The result for `COC[C@H]1NC(=O)CC[C@H]1C(=O)Nc1ccc2c(c1)OCCO2` reads 632 s; that for `CCOc1ccc(-c2nc(CSCC(=O)NCc3cccs3)c(C)o2)cc1`, 1030 s. On to `COc1ccc(CCNCc2ccc3c(c2)n(C)c(=O)n3C)cc1OC`, for which the RP-LC retention time is 587 s.

In the case of `COc1ccccc1C(=O)NC1CCN(c2ccccc2)C1=O` (stereo not drawn), the RP-LC retention time was found to be 789 s.

`CCCCn1c(=O)c2ccccc2n(Cc2nc(-c3ccc(C)cc3)no2)c1=O` returned an RP-LC retention time of 853 s. In the case of `O=C(Cc1c(Sc2ccc(F)cc2)[nH]c2ccccc12)N1CCN(c2ccccn2)CC1` it was 714 s; in that of `Cc1sc(NC(=O)c2ccncc2)nc1-c1ccc2c(c1)NC(=O)C(C)O2` (stereo not drawn), 714 s. In the case of `COc1cccc(C(=O)N2CCC3(CC2)NC(=O)c2cc(F)ccc2N3C)c1` it was 762 s; in that of `COc1ccc(C(=O)N2CCC(COc3ccc(C(=O)NC(C)C)cc3)CC2)cc1F`, 834 s. `CC(=O)c1cccc(NC(=O)CCc2c(C)nn(-c3cc(N4CCCC4)ncn3)c2C)c1` returned an RP-LC retention time of 765 s.

For the molecule `Cc1ccc(S(=O)(=O)N2CCCN(C)c3ccccc32)cc1F`, the RP-LC retention time is 1100 s. With `Cc1cccc(NC(=O)N2CCC(N3CCN(Cc4ccccc4)C(=O)C3=O)CC2)c1`, the RP-LC retention time worked out at 744 s. In the case of `Cc1ccc(C(=O)Nc2cc(-c3cccnc3)no2)cc1` it was 764 s; in that of `COc1ccc(Cl)cc1NC(=O)COc1nc(C)nc2ccccc12`, 840 s; in that of `COc1ccc(-n2c(=O)n(C)c(=O)c3cc(C(=O)NC(C)c4ccc(F)cc4)cnc32)cc1` (stereo not drawn), 888 s. `COc1ccc(NS(=O)(=O)c2cc(-c3cc(C(F)(F)F)on3)sc2C)cc1Cl` displayed an RP-LC retention time of 1140 s.

As to `COc1ccc(N2CC(NC(=O)C(=O)c3c[nH]c4ccccc34)CC2=O)cc1` (stereo not drawn), the RP-LC retention time stood at 761 s. As to `CCCN1C(=O)CCc2cc(NS(=O)(=O)c3ccc(Cl)c(Cl)c3)ccc21`, the RP-LC retention time came out at 983 s. As for `CC(C)c1ccc(-c2ccnc3c(C(=O)N4CCN(c5ccccn5)CC4)cnn23)cc1`, the RP-LC retention time is 710 s.

As for `COc1ccc2c(c1)C1(CCN(C(=O)c3cccc(OC)c3OC)C1)C(=O)N2C` (stereo not drawn), the RP-LC retention time came to 737 s.

In turn, `CC(=O)Oc1ccccc1C1=NN(C(C)=O)C(c2ccccc2Cl)O1` (stereo not drawn) gave an RP-LC retention time of 974 s.

Regarding `CN1c2ccccc2C(=O)NC12CCN(C(=O)NCc1ccc(F)cc1)CC2`, the RP-LC retention time amounted to 724 s. The molecule `Cc1noc(-c2cccn2Cc2c(F)cccc2Cl)n1` registered an RP-LC retention time of 1130 s.
